Laboratory results taken from patent publication US10039718B2, “Use of solid carrier particles to improve the processability of a pharmaceutical agent” (Gilead Sciences, Inc., priority 2008, dated 2018).

Experiment: Water uptake (hygroscopicity) by dynamic vapor sorption (DVS)
Format: physicochemical
Conditions: 75% RH, 25° C., after 1 hour drying under dry nitrogen
Experimental: The water uptake for AEROPERL® 300 (fumed silica), the Compound, and a sample of AEROPERL® 300 (fumed silica) loaded with 50.0% (w/w) of the Compound was measured as described below.
The compound of formula (I) was dissolved in ethanol and this solution was poured onto a sample of fumed silica that was equal in weight to the amount of the compound of formula (I). The resulting mixture was thoroughly mixed and the solvent was evaporated to provide the compound/AEROPERL® 300 (fumed silica) material used for the uptake study below.
The hygroscopicity of the samples was measured by dynamic vapor sorption (DVS) on a DVS Advantage-1 instrument from Surface Measurement Systems (SMS, Allentown, Pa.). In a DVS experiment the mass increase/decrease of a sample is measured at various relative humidity (RH) levels at a constant temperature. The instrument consists of a microbalance with one pan containing the sample (typically about 5-10 mg of sample) and an empty pan as a reference, and a water vapor generator to produce the desired relative humidity level. All experiments were run at a constant temperature of 25° C. For all experiments the samples were initially dried under a continuous flow of dry nitrogen for 1 hour to establish the dry mass m0. The relative humidity was then increased to 75% and the increase in mass was recorded as the samples take up water.

In the case of `CC(C)c1nc(CN(C)C(=O)NC(CCN2CCOCC2)C(=O)NC(CCC(Cc2ccccc2)NC(=O)OCc2cncs2)Cc2ccccc2)cs1` (stereo not shown) [the Compound], the “water adsorbed (increase in mass at equilibrium)” value is reported as 4.8 % (by weight).
